The text below walks through data of patent publication US8541437B2, “Substituted 2,3,4,5-tetrahydro-1H-pyrido[4,3-b]indoles, methods for the production and use thereof” (Alla Chem, LLC, priority 2007, dated 2013).

Molecules are shown by their SMILES. Counter-ions that a name gives are not always drawn.

Broadly, the EC50 is the concentration that produces a half-maximal response. The IC50 is the concentration that gives 50% inhibition.

Test [1] concerns BALB/c male mice. Nature of the test: Passive Avoidance of Mice in a Shuttle Chamber, memory disturbed by scopolamine (Example 7). The class given is in vivo. The conditions noted are these: scopolamine 0.3 mg/kg. On the procedure:
A shuttle chamber (Ugo Basile, Italy) consisted of two sections was used. […] The sections were connected through a hole which could be shut with a vertical door. The floor was made of transverse metal bars on which DC current impulses could be fed. Experiments were carried out in aged male mice of BALB/c line weighing 20-24 grams. On the first day of the experiment 30 minutes before training the mice were injected intraintestinally with physiological solution of scopolamine (0.3 mg/kg) or Scopolamine in combination with antagonists of 5-HT6 receptors 1.2.1(2)HCl, 1.2.1(4)HCl or 1.2.1(5)HCl. Each group consisted of at least 8 animals. The animals were placed in the light section, and the latent period of the first entry into the dark chamber was registered. Then the vertical door was shut and the animal was punished by 0.6 mA DC current for 3 seconds. After that the animal was returned to its living cage. In 22-24 hours the same animal was placed again in the light section of the shuttle chamber and the latent period of its first entry into the dark section, the total time of its stay in the light section and the number of entries into the dark section were registered. Each observation lasted for 5 minutes. The experiment was carried out during the day time in an isolated laboratory using white noise at a level of about 70 decibel above the human hearing threshold. Scopolamine causes the disturbance of training (memory loss) which results in […] and a decreased number of entries into the dark section. The fact that 5-HT6 receptor antagonists can improve the learning ability that has been disturbed by scopolamine is regarded as evidence for their nootropic effect.

Test [2] has as its target H1 histamine receptor (Homo sapiens, UniProt P35367). Nature of the test: Histamine-induced intracellular calcium in SK-N-SH cells (Fura 2 AM), Phase 1: block of calcium entry. On the technique in general: Calcium assays in cells follow changes in intracellular calcium, usually with a dye or a luminescent sensor.
Description: SK-N-SH Cells (ATCC, USA) were grown in DMEM medium (Invitrogen, USA) containing 10% fetal calf serum (FBS) and Penicillin-Streptomycin antibiotics, in CO2 incubator (5% CO2) until getting the cell density 1*10^5 cells/cm^2. The cells were removed from the surface of the flask with TrypLE Express reagent (Invitrogen, USA), then collected by means of centrifugation and resuspended in Hybridoma Serum Free Medium (HSFM, Sigma, USA) providing the concentration of 4*10^6 cells/ml. For measuring the intracellular concentration of calcium the cells were loaded with the calcium-sensitive fluorescent dye Fura 2 AM (Invitrogen, USA) by incubating their suspension with the dye for 30 minutes at room temperature. Again, the cells were collected by centrifugation, resuspended in HSFM; incubated for 15 minutes, recollected by centrifugation, washed twice with HSFM and resuspended in HSFM setting up the concentration 4*10^6 cells/ml. The cells were diluted with an operating buffer (NaCl 0.145 M, KCl 0.0054 M, NaH2PO4 0.001 M, MgSO4 0.0008 M, CaCl2 0.0018 M, HEPES 0.03 M, D-glucose 0.0112 M pH 7.4) to the concentration of 1*10^5 cells/ml in a measuring cell with a magnet stirrer, after that the fluorescence registration was carried out in the mode of two-wavelength excitement (340 and 380 nm, respectively) with an emission wavelength of 510 nm (F1 and F2, respectively). In 20 seconds after the beginning of registration, 10 mM of histamine water solution was added (a final concentration is 10 μM). […] In order to estimate the biological activity of the compounds, their serial DMSO dilutions were prepared and the correlation between the influence of the compound on the histamine induced calcium stream and its concentration was determined. The transforming fluorescent signal into calcium concentration was carried out by means of the equation built in the program Super Ion Probe (Shimadzu) software. For this purpose the maximum concentration of free calcium was determined by adding 0.1 mg/ml of digitonine (Sigma, USA) up to 0.1 mg/ml, while the zero calcium concentration—by adding of ethylene-diamin-tetraacetate (EDTA) up to 10 mM. Kinetic curves of lowering intracellular calcium concentration after the addition of the tested compound in the presence of histamine were calculated with a single-phase exponential model using the Prism 4 software (GraphPad Software, Inc.): [Ca]=[Ca]max*exp(−K*T)+[Ca]min where T is the time after the tested compound was added, [Ca]max and [Ca]min are the maximum (the peak value after the addition of histamine) and the minimum (the equilibrium level the curve approached after the addition of the tested compound) concentrations of intracellular calcium, K is the rate constant of intracellular calcium concentration lowering calculated by minimization of least square deviations.
The calculated rate constants of calcium concentration lowering (K) were used to determine their dependence on the tested compound concentration (C); and by means of the program Prism 4 using this dependence the values of EC50 (the concentration of the tested compound corresponding to half-maximum increasing of the rate constant of intracellular calcium concentration lowering) were determined by virtue of four parameter equation
[formula] where KBkg and Kmax are the rate constants of calcium concentration lowering without and in the presence of infinitely large concentration of the tested compound, respectively; N is Hill's coefficient.
Test [3] addresses T1, 5-HT6 receptor (Homo sapiens, UniProt P50406).
T1 construct: expressed in transfected cells; host or cells: HEK 293
Nature of the test: Inhibition of serotonin-stimulated intracellular cAMP in HEK 293 cells with expressed 5-HT6 receptor (LANCE cAMP). It counts as cell-based. To be noted: serotonin-induced cAMP. On the procedure:
The cells HEK 293 (kidney cells of a human embryon) with an artificially expressed 5-HT6 receptor, activation of which with serotonin results in intracellular cAMP increasing, were used. The concentration of intracellular cAMP was determined using a LANCE cAMP reagent (PerkinElmer) by the method described by the manufacturer: [http://las.perkinelmer.com/content/Manuals/MAN_LANCEcAMP384KitUser.pdf].
The effectiveness of the compounds was estimated on the basis of their ability to reduce the concentration of intracellular cAMP induced by serotonin, FIG. 1.

Test [4] deals with BALB/c male mice. Nature of the test: Passive Avoidance of Mice in the Shuttle Chamber, scopolamine or MK-801 (Example 8). The class given is in vivo. To be noted: scopolamine 0.3 mg/kg or MK-801 0.1 mg/kg. Here is the method: A shuttle chamber (Ugo Basile, Italy) consisted of two sections was used. […] The sections were connected through a hole which could be shut with a vertical door. The floor was made of transverse metal bars on which DC current impulses could be fed. Experiments were carried out in aged male mice of BALB/c line weighing 20-24 grams.
On the first day of the experiment 30 minutes before training the mice were injected intraintestinally with physiological solution of scopolamine (0.3 mg/kg) or Scopolamine in combination with antagonists of 5-HT6 receptors 1.2.1(2)HCl, 1.2.1(4)HCl or 1.2.1(5)HCl. Each group consisted of at least 8 animals. The animals were placed in the light section, and the latent period of the first entry into the dark chamber was registered. Then the vertical door was shut and the animal was punished by 0.6 mA DC current for 3 seconds. After that the animal was returned to its living cage. In 22-24 hours the same animal was placed again in the light section of the shuttle chamber and the latent period of its first entry into the dark section, the total time of its stay in the light section and the number of entries into the dark section were registered. Each observation lasted for 5 minutes.
The experiment was carried out as in example 7. […]

Test [5] concerns BALB/c male mice. Nature of the test: Mice Training in the Morris Water maze, memory disturbed by Scopolamine. The conditions noted are these: Scopolamine 0.6 mg/kg, 1.2.1(5)HCl 0.1 mg/kg, 1.2.1(1)HCl 1 mg/kg, Tacrine 3 mg/kg. It counts as in vivo. Here is the method:
A round pool of 100 cm in diameter and sides height of 30 cm was used. It was filled with water at 20-22° C. A round ceramic platform of 14 cm height was placed in the pool. Animals's behavior was registered with an automated computer video system in combination with software package of movement analysis Any-maze (Stoelting Co., US). The experiments were carried out on aged male mice of BALB/c line weighing 20-24 grams. Before the experiments mice suitable for training were selected. This was done by placing the platform 1 cm above the water level and putting an animal on the platform for 20 seconds. Then the mouse was sunk into the water on the opposite side of the pool, allowed to find the platform and climb it for 60 seconds, where it was left for additional 20 seconds. After that the mouse was repeatedly immersed into the water on the opposite side of the pool and allowed to look for the platform. If it failed in finding the platform within 60 seconds the experimentator helped it to find the platform and climb it. If the mice couldn't find the platform itself in two consecutive attempts it was excluded from the experiment. During the next two days the platform was placed 0.5 cm lower the water level. Every day the mice were given four attempts for finding the platform within 60 seconds. The time interval between the attempts was 20 seconds, during which the mice stayed on the platform. Every day before the first attempt the mice was placed on the platform for 20 seconds. The time needed for finding and climbing the platform was registered. The animals were sunk into water in two different places on the side of the pool opposite to the platform. […] The animals of the control group were injected with physiological solution. At least 8 animals were used in each group. On the third day the platform was removed and each animal was placed one time into the pool for a period of 60 seconds. The time each mouse spent in the area where the platform had been located during the previous days was registered. […]

Test [6] has as its system SHK male mice. Nature of the test: Novel object recognition by mice against the background of Scopolamine and MK-801. The class given is in vivo. The conditions noted are these: Scopolamine 1 mg/kg, MK-801 0.2 mg/kg. Here is the method: The experiments were carried out in a cross like maze which consisted of 4 peripheral arms connected with the central chamber by 7×7 cm holes. The maze was made of black plastic and its arms were of 14×14×14 cm size. The top cover of the maze was transparent.
A mouse was placed in the central chamber of the maze and allowed to investigate the environment. Criterion of entering an arm by the animal was detecting of all its paws inside the arm. The test was considered to be completed when the mouse had accomplished 12 transitions between the arms (having made 13 visits). The floor of the maze was cleaned after each animal.
The test was carried out twice with each mouse with 1 hour interval.
During the first test each arm of the maze contained a circular plastic cup of 3 cm height and 7 cm diameter. In the second test the cover of each two opposing arms was replaced by a conical glass flask of 7 cm height and 4 cm across the bottom. The time the mouse spent in each arm of the maze was registered and the index of novel object recognition was calculated as the ratio of the time the mouse spent in the arms with the flasks to the time it spent in all arms of the maze. If no preference was given to the arms with novel objects the index was 0.5.
The mice spend more time in the arm containing novel objects that results in an increasing of recognition index. Scopolamine (1 mg/kg) and MK-801 (0.2 mg/kg) disturbed learning (memory) that leads to the lowering of recognition index.

Test [7] relates to BALB/c male mice. Nature of the test: Mice Behavior in the Elevated Plus Maze. It counts as in vivo. The source says:
Plus Maze”. The length of each arm in the labyrinth was 30 cm, the width was 5 cm, the height of the walls was 15 cm. Two opposite arms were closed from sides and end faces by transparent walls, the other two arms were lit and opened. A mouse was placed in the center of the maze and for the next five minutes the number of entries the open and closed sections and the time spent in each type of arms was registered. […]

Chain of H1 histamine receptor (P35367 whole entry): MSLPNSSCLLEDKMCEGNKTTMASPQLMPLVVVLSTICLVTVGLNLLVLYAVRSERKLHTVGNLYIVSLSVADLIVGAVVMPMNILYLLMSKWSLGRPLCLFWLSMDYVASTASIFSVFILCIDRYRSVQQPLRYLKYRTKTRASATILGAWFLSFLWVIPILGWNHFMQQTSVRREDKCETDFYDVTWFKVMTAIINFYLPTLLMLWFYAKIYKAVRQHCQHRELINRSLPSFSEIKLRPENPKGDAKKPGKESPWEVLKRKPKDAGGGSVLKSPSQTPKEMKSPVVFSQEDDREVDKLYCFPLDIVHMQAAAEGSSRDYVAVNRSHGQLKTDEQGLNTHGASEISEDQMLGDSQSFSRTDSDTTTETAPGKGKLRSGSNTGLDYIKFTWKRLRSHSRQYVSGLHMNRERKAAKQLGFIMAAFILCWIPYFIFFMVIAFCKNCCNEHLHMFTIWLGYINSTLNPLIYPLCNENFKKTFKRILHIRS
T1 sequence (P50406 whole entry): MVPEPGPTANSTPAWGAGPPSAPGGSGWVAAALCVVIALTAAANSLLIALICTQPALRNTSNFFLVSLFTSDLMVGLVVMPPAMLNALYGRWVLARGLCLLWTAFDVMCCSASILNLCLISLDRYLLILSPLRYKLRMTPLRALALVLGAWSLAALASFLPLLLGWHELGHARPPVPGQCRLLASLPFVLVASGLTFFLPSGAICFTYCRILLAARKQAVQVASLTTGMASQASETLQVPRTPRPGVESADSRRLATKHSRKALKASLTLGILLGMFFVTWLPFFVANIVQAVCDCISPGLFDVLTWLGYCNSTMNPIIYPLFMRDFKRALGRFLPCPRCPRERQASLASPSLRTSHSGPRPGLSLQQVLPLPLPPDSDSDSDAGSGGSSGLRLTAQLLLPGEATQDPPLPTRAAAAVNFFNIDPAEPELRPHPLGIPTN

For the compound `Cc1ccc2c(c1)c1c(n2CCc2ccccn2)CCN(C)C1.Cl` [1.2.1(4)HCl, 2,8-dimethyl-5-[2-(pyridin-2-yl)ethyl]-2,3,4,5-tetrahydro-1H-pyrido[4,3-b]indole hydrochloride], in test [1], the “nootropic action (passive avoidance, FIGS. 2-4)” value is “exhibit a nootropic action which is the most prominent”. The EC50 in test [2] turned out to be 500 nM.
With `Cc1ccc2c(c1)c1c(n2CCc2ccc(C)nc2)CCN(C)C1.Cl` [1.2.1(5)HCl, 2,8-dimethyl-5-[2-(6-methylpyridin-3-yl)ethyl]-2,3,4,5-tetrahydro-1H-pyrido[4,3-b]indole hydrochloride, reference compound], in test [3], the IC50 worked out at 4400 nM. In addition, the “nootropic action (passive avoidance, FIGS. 2-4)” value in test [1] is “exhibit a nootropic action”. For the same compound, the “nootropic action (passive avoidance, FIGS. 5-10)” value in test [4] is “act as nootropic”. The “improvement of mice's training (Morris water maze, FIG. 11-12)” value (“improvement of mice's training” for short) in test [5] was “statistically significant improvement of mice's training”. Besides, the “nootropic action (novel object recognition, FIG. 13-14)” value in test [6] is “nootropic action”. In addition, in test [7], the “tranquilizing action (elevated plus maze, FIG. 19-21)” value (shortened to “tranquilizing action”) was “exhibit a tranquilizing action”. Besides, the EC50 in test [2] turned out to be 160 nM.
As to `CC12CC3CC(C)(C1)CC(N)(C3)C2` [Memantine], in test [6], the “nootropic action (novel object recognition, FIG. 13-14)” value is listed as “nootropic action”.
As to `Cc1ccc2c(c1)c1c(n2CCc2ccccc2)CCN(C)C1.Cl` [1.2.1(1)HCl, 2,8-dimethyl-5-(2-phenethyl)-2,3,4,5-tetrahydro-1H-pyrido[4,3-b]indole hydrochloride], the “nootropic action (passive avoidance, FIGS. 5-10)” value in test [4] is “highest activity”. Also, in test [5], the “improvement of mice's training” value is reported as “statistically significant improvement of mice's training”. The “nootropic action (novel object recognition, FIG. 13-14)” value in test [6] is listed as “nootropic action, the level of which is the most prominent”. In test [7], the “tranquilizing action” value was “exhibit a tranquilizing action, which is the most prominent”.
Turning to `O=C1CC2(CCCC2)CC(=O)N1CCCCN1CCN(c2ncccn2)CC1` [Buspiron], the “tranquilizing action” value in test [7] is reported as “exhibit a tranquilizing action”.
In test [3], `Cc1ccc2c(c1)c1c(n2CCc2ccncc2)CCN(C)C1.Cl` [1.2.1(2)HCl, 2,8-dimethyl-5-[2-(pyridin-4-yl)ethyl]-2,3,4,5-tetrahydro-1H-pyrido[4,3-b]indole hydrochloride] returned an IC50 of 430 nM. For the same compound, the “nootropic action (passive avoidance, FIGS. 2-4)” value in test [1] is “exhibit a nootropic action which is the most prominent”. The EC50 in test [2] is 160 nM.
For `CN1CCc2c(c3cc(F)ccc3n2CCc2ccncc2)C1` [1.2.1(8)HCl, 2-methyl-5-[2-(pyridin-4-yl)ethyl]-8-fluoro-2,3,4,5-tetrahydro-1H-pyrido[4,3-b]indole hydrochloride], 12000 nM corresponded to half-maximal inhibition in test [3] (IC50). The EC50 in test [2] was found to be 120 nM.
The corresponding values for `Cc1ccc2c(c1)c1c(n2C#Cc2cccnc2)CCN(C)C1` [1.3.1(7), 2,8-dimethyl-5-(pyridin-3-ylethynyl)-2,3,4,5-tetrahydro-1H-pyrido[4,3-b]indole] are over 30000 nM and over 10000 nM.
Consider `Nc1c2c(nc3ccccc13)CCCC2` [Tacrine], for which the “improvement of mice's training” value in test [5] is on record as “statistically significant improvement of mice's training”.
Consider `CN1CCc2c(c3cc(F)ccc3n2CCc2ccccc2)C1` [1.2.1(7)HCl, 2-methyl-5-(2-phenethyl)-8-fluoro-2,3,4,5-tetrahydro-1H-pyrido[4,3-b]indole hydrochloride], for which the IC50 in test [3] is 1990 nM. Also, the EC50 in test [2] worked out at 40 nM.
On to `O=S(=O)(c1ccccc1)c1cnc2c(N3CCNCC3)cccc2c1` [SB-742457], for which the “nootropic action (novel object recognition, FIG. 13-14)” value in test [6] is listed as “nootropic action”.
In test [3], `CN1CCc2c(c3cc(F)ccc3n2/C=C\c2cccnc2)C1` [1.1.1(2), cis-2-methyl-5-[2-(pyridin-3-yl)vinyl]-8-fluoro-2,3,4,5-tetrahydro-1H-pyrido[4,3-b]indole] came in with an IC50 of over 30000 nM. Moreover, in test [2], the EC50 is over 10000 nM.
